Experimental findings from patent US11058700B2, “Macrocyclic lactones and uses thereof as modulators of purinergic receptors” (City of Hope, priority 2015, dated 2021) are described below.

The subject of test [1] is Caspase-1, Caspase-3 and PARP in 4T1.2 and MDA-MB-231 cells. Kind of test: Caspase activation and PARP cleavage. The test is classed as cell-based, mouse, human. As to conditions: 32 μM, 4 h. The method, then:
FIGS. 1A-1H. Ivermectin kills breast cancer cells through a mixed apoptotic and necrotic mechanism. FIG. 1A: Mouse (4T1.2) and human (MDA-MB-231) TNBC cells manifest similar sensitivity to Ivermectin. Viability of cells treated with various doses of Ivermectin for 24 h. FIG. 1B: Extended exposure time reduces IC50 values to as low as 2 μM. 4T1.2 cells were seeded at 100 cells/well and individual colonies were counted after a week. Cancer cells were exposed to Ivermectin during the initial 24 h or during the entire duration of the assay. FIG. 1C: MDA-MB-231 breast cancer cells manifest higher sensitivity to Ivermectin compared to normal non-transformed human foreskin fibroblasts (HFFs). FIG. 1D: Flow cytometry analysis showing that cell death proceeds through two distinct pathways: a directly necrotic 7AAD-single positive or Annexin V/PS-single positive apoptotic pathway. FIG. 1E: Kinetics of necrotic versus apoptotic killing of 4T1.2 breast cancer cells. FIG. 1F: Ivermectin-induced cell death can be reversed by inhibition of various controlled cell death pathways. 4T1.2 cells were treated for 4 h with 32 μM Ivermectin in the presence of μM concentrations of Z-vad-fmk, Necrostatin-1, Digoxin, or VX-765, as indicated. […]
Caspase activation and PARP cleavage. […] PARP cleavage was analyzed after fixing the cells (eBioscience, Cat #00-5123 and Cat #00-5223) for 30 min at RT. […]

In test [2] the test system is 4T1.2 cancer cells. Nature of the test: Synergy between Ivermectin and ROS (CompuSyn CI). The test is classed as cell-based, mouse. As to conditions: for CompuSyn CI values: 4T1.2, 24 h/48 h. Here is the method: FIGS. 2A-2C. Role of NADPH oxidases-generated ROS. […] 4T1.2 cells were labeled with a ROS detection probe and treated for 1 h with 32 μM Ivermectin in the presence of 1 mM EDTA, 5mM NAC, 5 μM DPI, 2500 μunits/ml Apyrase, 3 mM ATP, and 10 μM KN-62. […] Triangles (▴) indicate significant antagonism CI>1.0. […] 4T1.2 cancer cells were irradiated (10-20 kRad) or treated with H2O2 (10-1000 μM), PTX (0.1-1 μM), or DOX (1-4 μM) and incubated with Ivermectin for 24 h/48 h. Circles (●) indicate significant synergy CI<1.0, see Table 1. Asterisk (*) indicates p<0.05 relative to untreated or Ivermectin alone controls, respectively.
Cell viability. Cancer cells were plated on 96 well flat-bottom plates and allowed to attach overnight. Cells were then pre-incubated with drugs for 1 h and treated with Ivermectin for 4 h. In the case of 24 h and 48 h incubations the cells, Ivermectin and drugs were plated together. […] Following treatment the plates were washed once with PBS and cell viability was measured using the acid phosphatase assay. Briefly, cells were incubated for 1h at 37° C. in 100 μL assay buffer (0.16 M sodium acetate, 0.1% Triton-X-100, supplemented with 4-Nitrophenyl phosphate disodium salt hexahydrate, Sigma Aldrich, at 0.00263 g/ml). Reaction was stopped using 10 μL of 1N sodium hydroxide. Absorption at 405 nm was measured within 10 min using a multi-well plate reader. Mode of cell death and viability of cells in suspension was evaluated using flow cytometry. Briefly, cancer cells were pre-incubated with drugs for 30 min to 1 h, as indicated, treated with Ivermectin for 4 h in 5 ml FACS tubes , washed twice in PBS and stained with PE-conjugated Annexin V and 7AAD (1 μl per 100 μl/200,000 cancer cells) for 15 min.

In test [3] the test system is 4T1.2 breast cancer cells. Kind of test: Cytosolic Cl- influx. In kind it is cell-based. As to conditions: mouse 4T1.2 cells. Here is the method: Cytosolic Cl^− influx. Cancer cells in suspension were treated with various doses of Ivermectin in R10 medium for 1h at 37° C. and 5% CO2. Cells were then washed with PBS and loaded with 10 μM SPQ probe (Life Technologies, M440) in a hypotonic buffer containing 50% PBS and 50% double distilled water. Following brief 15 min incubation at room temperature in the dark cells were washed once with PBS and immediately analyzed by flow cytometry measuring fluorescence in the AF350 channel.

For test [4], the system named is 4T1.2 cells. Nature of the test: Mitochondrial membrane potential (JC-1). The test is classed as cell-based, mouse. Here is the method:
FIGS. 4A-4D. Excessive Ca^2+/CaMKII signaling and MPTP contribute to cell death. FIG. 4A: Kinetics of cytosolic Ca^2+ increase in 4T1.2 cells treated with Ivermectin. […] 4T1.2 cells were treated for 4 h with 32 μM Ivermectin in the presence of the P2X7/CaMKII dual inhibitor KN-62 or the CaMKII-specific inhibitor KN-63, at μM concentrations as indicated. FIG. 4C: Flow cytometry analysis of JC-1 loaded 4T1.2 cells showing that high doses of Ivermectin result in a sudden mitochondrial de-polarization, while lower doses cause similar effects but after transient hyper-polarization. FIG. 4D: MPTP contributes to Ivermectin. 4T1.2 cells were treated for 4 h with 32 μM Ivermectin in the presence of the MPTP inhibitor Cyclosporin A at μM concentrations as indicated. Asterisk (*) indicates p<0.05 relative to untreated or Ivermectin alone controls, respectively.
Mitochondrial membrane potential. Cancer cells in suspension were washed with PBS and loaded with 2 μM JC-1 (Life Technologies, T3168) for 15 min at room temperature in the dark. Cells were washed twice with PBS and treated with various doses of Ivermectin in R10 medium. Cells were incubated for 1 h/4 h in 5 ml FACS tubes at 37° C. and 5% CO2. After 1h/4h of treatment cells were analyzed by flow cytometry. Mitochondrial polarization was evaluated by measuring the corresponding changes in fluorescence in the FITC and PE channels. […]

For `CC[C@H](C)[C@H]1O[C@]2(CC[C@@H]1C)C[C@@H]1C[C@@H](C/C=C(\C)[C@@H](O[C@H]3C[C@H](OC)[C@@H](O[C@H]4C[C@H](OC)[C@@H](O)[C@H](C)O4)[C@H](C)O3)[C@@H](C)/C=C/C=C3\CO[C@@H]4[C@H](O)C(C)=C[C@@H](C(=O)O1)[C@]34O)O2` [Ivermectin], the PARP cleavage entry in test [1] is given as “rapid cleavage of PARP”. Also, the caspase activation result in test [1] is “potent caspase-1 and caspase-3 activation”. In test [2] (4T1.2 cells), the “synergy with irradiation, H2O2-generated ROS, doxorubicin and paclitaxel” value is “synergistic”. In addition, the “CompuSyn CI values” was “.16” in test [2] (kRad 15 + Ivermectin 4), “.75” in test [2] (kRad 15 + Ivermectin 8), “.94” in test [2] (kRad 20 + Ivermectin 4) and “.63” in test [2] (kRad 20 + Ivermectin 8). For the same compound, in test [3], the “cytosolic Cl- influx” value is listed as “Cl^− influx”. Besides, the mitochondrial polarization entry in test [4] (high doses of Ivermectin, massive cell death) was “sudden depolarization of mitochondria”; in test [4] (lower doses of Ivermectin), “mitochondrial hyperpolarization”.
